Patent publication US6407204B1 (priority 1997, dated 2002)

Experiments:
Male Sprague-Dawley rats [1] = conditions: rat, in vivo
Male Sprague-Dawley rats [2] = conditions: rat, in vivo; remark: listed apart in the source

Substance	dose required to induce analgesic effects in both acute and tonic pain portions (Male Sprague-Dawley rats [1])	effect of the single agent alone (Male Sprague-Dawley rats [1])	rats showing signs of incoordination (Male Sprague-Dawley rats [2])	ED50 in phase II (Male Sprague-Dawley rats [1])	analgesic doses in the formalin test (Male Sprague-Dawley rats [1])	effect on phase I flinches (Male Sprague-Dawley rats [1])	effect on phase II flinches (Male Sprague-Dawley rats [1])	potency in phase II (tonic pain) versus phase I (acute pain) (Male Sprague-Dawley rats [1])	overt signs of toxicity (Male Sprague-Dawley rats [2])
Gly-Glu-Gla-Gla-Val-Ala-Lys-Met-Ala-Ala-Glu-Leu-Ala-Arg-Glu-Asn-Ile-Ala-Lys-Gly-Cys-Lys-Val-Asn-Cys-Tyr-Pro [Conantokin R]	more than 3.3 μg	no effect	One of six rats						
Gly-Glu-Gla-Gla-Leu-Gln-Gla-Asn-Gln-Gla-Leu-Ile-Arg-Gla-Lys-Ser-Asn-NH2 [Conantokin G]				0.15 µg	0.05 to 1 µg	without significantly decreasing	nearly abolished	very potent	no overt signs of toxicity
